Data published in patent publication US20210052874A1, “ULTRASOUND DEVICE AND THERAPEUTIC METHODS” (priority 2011, published 2021).

Assay: In vitro transdermal delivery of carboxyfluorescein through mouse skin in a Franz diffusion cell, with or without low frequency ultrasound (LFUS)
Format: in vitro ADME
Conditions: for Delivery Efficiency (% of CF delivered) / Enhancement Ratio v. free CF, no LFUS: mouse skin
Experimental: An in vitro study was performed to evaluate the ability of the present invention to enable transdermal delivery of substantially intact encapsulated drugs. The study involved applying low intensity, low pressure amplitude ultrasound waves to mouse skin in order to mediate transdermal delivery of liposome encapsulated carboxyfluorescein (CF), a hydrophilic dye. […] In this setup, an ultrasound applicator 10 having 4 transducers 12 arranged in a 2×2 array is supported by a custom fixture 80 and in direct communication with a Franz diffusion cell, including a donor compartment 82 filled with a liquid medium interspersed with liposome encapsulated CF and a sample mouse skin. Low frequency ultrasound waves (LFUS) having a low pressure amplitude of about 55 kPa, a low acoustic intensity of about 100 mW/cm^2 and a low frequency of about 17.9 kHz was generated by ultrasound applicator 10 and directed towards a mouse skin sample 84 positioned adjacent to donor compartment 82 for about 4 hours. The amount of liposome encapsulated CF that permeated mouse skin 84 and collected within a receptor compartment 86 surrounded by a water jacket 88 was examined and measured after about 4 hours of ultrasound application when the ultrasound source was turned off and again 8 hours after the start of the experiment. The liposomes were made from 1,2-dioleoyl-sn-glycerol-3-phosphocholine (DOPC), and the liposome encapsulated CF was prepared using the dehydration-rehydration technique described in Kirby, C. and G. Gregoriadis, “Dehydration rehydration vesicles: a simple method for high yield drug entrapment in liposome,” Nature Biotechnology, 1984, 2(11): p. 9′79-984, herein incorporated by reference. In this experiment, encapsulation efficiency of the CF was improved (about 10% to about 30% measured by titration) by minimizing the amount of rehydration buffer used, adjusting pH before rehydration to fully dissolve CF by minimizing the amount of rehydration buffer used, and by adjusting the pH to about 10 and subsequently adjusting the pH to about 7.4 before rehydration. The original encapsulation efficiency of CF was about 0.67% in 100 nm liposomes, using about 5.2 mg CF in the rehydration buffer (about 2.56 mM). […] Tests D1-D2 show the results for liposome encapsulated CF after exposure to 20 minutes of low frequency ultrasound stimulation. Tests E1-3 show the results for liposome encapsulated CF upon exposure to 4 hours of low frequency ultrasound stimulation.

carboxyfluorescein [Free CF]
Delivery Efficiency (% of CF delivered) (4 hr simultaneous LFUS): 0.03%
Enhancement Ratio v. free CF, no LFUS (4 hr simultaneous LFUS): 0.00
Amount able to permeate the mouse skin (after 8 hours, not assisted by ultrasound): less than 0.005 M/M
Delivery Efficiency (% of CF delivered) (no LFUS): 0.03%
Enhancement Ratio v. free CF, no LFUS (no LFUS): 0.00
